According to patent publication US6043235A, “11β-aryl-17, 17-spirothiolane-substituted steroids” (Research Triangle Institute, priority 1999, dated 2000):

Tests used:
[1] = target: T1, Human Progestin Receptor in T47-D Cells (Homo sapiens, UniProt P06401); assay: Whole cell receptor binding (competition with 3H-R5020) in T-47D human breast carcinoma cells; conditions: for IC50: 50% displacement of 3H-R5020, T-47D cells, overnight incubation; for Relative Binding % Prog.: RBA relative to internal standard progesterone; for Relative Binding % Prog. / Relative Binding % R5020: ratio of concentrations causing 50% displacement, compared in the same assay; for Relative Binding % R5020: RBA relative to reference standard R5020 (promegestone)
T1 construct: The human breast carcinoma (T-47D) cell line was used to assess RBA for progestin receptor; host or cells: T-47D human breast carcinoma cells
T1 sequence (P06401 1-933): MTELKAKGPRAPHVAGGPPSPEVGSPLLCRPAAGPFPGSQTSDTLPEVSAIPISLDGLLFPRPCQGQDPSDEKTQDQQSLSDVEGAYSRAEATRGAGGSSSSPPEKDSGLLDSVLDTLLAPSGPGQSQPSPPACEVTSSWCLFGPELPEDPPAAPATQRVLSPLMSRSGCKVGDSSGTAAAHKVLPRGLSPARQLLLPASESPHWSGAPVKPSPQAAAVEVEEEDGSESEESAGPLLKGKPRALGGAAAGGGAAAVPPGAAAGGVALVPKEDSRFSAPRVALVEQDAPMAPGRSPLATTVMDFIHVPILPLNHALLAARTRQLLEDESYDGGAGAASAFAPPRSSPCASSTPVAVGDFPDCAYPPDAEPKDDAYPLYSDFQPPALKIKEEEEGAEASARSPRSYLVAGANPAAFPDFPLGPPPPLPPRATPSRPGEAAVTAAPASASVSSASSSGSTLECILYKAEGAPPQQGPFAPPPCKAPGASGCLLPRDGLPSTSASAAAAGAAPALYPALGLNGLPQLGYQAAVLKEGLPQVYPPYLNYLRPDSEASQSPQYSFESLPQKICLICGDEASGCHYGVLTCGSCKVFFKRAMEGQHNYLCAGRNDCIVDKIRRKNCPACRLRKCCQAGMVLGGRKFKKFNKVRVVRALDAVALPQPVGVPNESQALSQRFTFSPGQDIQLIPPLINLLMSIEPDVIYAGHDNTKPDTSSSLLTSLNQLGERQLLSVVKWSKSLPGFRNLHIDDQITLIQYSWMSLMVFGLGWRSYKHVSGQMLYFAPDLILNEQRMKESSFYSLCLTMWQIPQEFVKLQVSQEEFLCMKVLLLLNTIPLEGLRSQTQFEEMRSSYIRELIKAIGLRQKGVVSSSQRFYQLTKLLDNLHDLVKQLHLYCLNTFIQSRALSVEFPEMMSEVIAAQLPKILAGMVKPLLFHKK
Method: The biological activity of the compounds of this invention was examined by means of whole cell receptor binding studies.
Receptor Binding. The affinity of the compounds for hormone receptors was determined by standard procedures similar to those that have been described, inter alia, by Wagner et al., Proc. Natl. Acad. Sci., 93, 8739-8744 (1996) for COS-1 cells. The human breast carcinoma (T-47D) cell line was used to assess RBA for progestin receptor. The cell line used was obtained from ATCC (American Type Culture Collection) and stored frozen at -135° C. until a week before the assays were conducted. The cells were thawed and cultured to achieve the desired cell number (5 to 7 days on average). They were maintained at 37° C. with growth media until they were 90-100% confluent, at which time they were recovered from the growth flasks and dispersed into individual wells of a 12-well tissue culture plate at a count of 4×10^5 cells in one mL medium per well. After 24 h the cells adhered to the bottom of the 12-well plates. At this point, the receptor binding assay procedure was initiated by the addition of test or standard compounds with 3H-R5020 (promegestone). After incubation overnight, medium was removed, the cells were washed and solubilized and radioactivity was measured by liquid scintillation spectrometry. Nonspecific binding was determined by incubation with excess of unlabeled R5020 and subtracted from total binding to calculate specific binding. The progesterone binding assay was conducted with several concentrations of the reference standard (promegestone, R-5020) and an internal standard (progesterone). These hormones were allowed to compete with tritiated competitor (3H-promegestone, 3H-R5020) to estimate relative binding. Test steroids were tested at three or more concentrations between 0.01 to 1000 nM. If 50% displacement of the 3H-R5020 from the receptor was not achieved by the unknown, higher or lower concentrations were tested, as needed, to obtain that goal. All compounds were tested in duplicate for at least two assays. The percentage of specifically bound 3H-R5020 for each concentration tested was calculated and binding curves were generated by plotting the percentage of specifically bound 3H-R-5020 versus the concentration of the competitor. The relative binding activity (RBA) of the test compounds, relative to the reference standard (R5020) as well as the internal standard, was determined from the ratio of concentrations causing 50% displacement for each unknown and standard and expressed as a percentage value. These concentrations were obtained by graphical interpolation of the plots.

human progestin receptor = conditions: % the affinity of progesterone; Smith et al., J. Biol. Chem. 1974; cited from earlier work

CN(C)c1ccc([C@H]2C[C@@]3(C)[C@@H](CC[C@@]34CCC[S+]4[O-])[C@@H]3CCC4=CC(=O)CCC4=C32)cc1 (single isomer, unassigned) [Compound 21a, 11β-[4-(N,N-Dimethylamino)phenyl]-1'-oxo-spiro[estr-4,9-diene-17β,2'-thiolane]-3-one]
IC50 [1]: 3.1 nM
Relative Binding % Prog. [1]: 825%
Relative Binding % R5020 [1]: 128%

CN(C)c1ccc([C@H]2C[C@@]3(C)[C@@H](CC[C@@]34CCC[S+]4[O-])[C@@H]3CCC4=CC(=O)CCC4=C32)cc1 (single isomer, unassigned) [Compound 21b, 11β-[4-(N,N-Dimethylamino)phenyl]-1'-oxo-spiro[estr-4,9-diene-17β,2'-thiolane]-3-one]
IC50 [1]: 6.6 nM
Relative Binding % Prog. [1]: 260%
Relative Binding % R5020 [1]: 43%

CC(=O)c1ccc([C@H]2C[C@@]3(C)[C@@H](CC[C@@]34CCC[S+]4[O-])[C@@H]3CCC4=CC(=O)CCC4=C32)cc1 (single isomer, unassigned) [Compound 22a, 11β-(4-Acetylphenyl)-1'-oxo-spiro[estra-4,9-diene-17β,2'-thiolane]-3-one]
IC50 [1]: 183 nM
Relative Binding % Prog. [1]: 19%
Relative Binding % R5020 [1]: 2%

CC(=O)c1ccc([C@H]2C[C@@]3(C)[C@@H](CC[C@@]34CCC[S+]4[O-])[C@@H]3CCC4=CC(=O)CCC4=C32)cc1 (single isomer, unassigned) [Compound 22b, 11β-(4-Acetylphenyl)-1'-oxo-spiro[estra-4,9-diene-17β,2'-thiolane]-3-one]
IC50 [1]: 135 nM
Relative Binding % Prog. [1]: 25%
Relative Binding % R5020 [1]: 2%

CSC1CCC2C3CCC4=CC(=O)CCC4(C)C3CCC12C (stereo not shown) [17-thiomethylandrost-4-en-3-one]
affinity relative to progesterone, binding to human progestin receptor (human progestin receptor): 25%

CN(C)c1ccc([C@H]2C[C@@]3(C)[C@@H](CC[C@@]34CCCS4)[C@@H]3CCC4=CC(=O)CCC4=C32)cc1 [Compound 12, 11β-[4-(N,N-Dimethylamino)phenyl]-spiro[estra-4,9-diene-17β,2'-thiolane]-3-one]
IC50 [1]: 2.8 nM
Relative Binding % Prog. [1]: 983%
Relative Binding % R5020 [1]: 105%

CSc1ccc([C@H]2C[C@@]3(C)[C@@H](CC[C@@]34CCCS4)[C@@H]3CCC4=CC(=O)CCC4=C32)cc1 [Compound 14, 11β-[4-(Methylthio)phenyl]-spiro[estra-4,9-diene-17β,2'-thiolane]-3-one]
IC50 [1]: 4.1 nM
Relative Binding % Prog. [1]: 651%
Relative Binding % R5020 [1]: 49%

CN(C)c1ccc([C@H]2C[C@@]3(C)[C@@H](CC[C@@]34CCCS4(=O)=O)[C@@H]3CCC4=CC(=O)CCC4=C32)cc1 [Compound 24, 1',1'-Dioxo-11β-[4-(N,N-dimethylamino)phenyl]-spiro[estra-4,9-diene-17β,2'-thiolane]-3-one]
IC50 [1]: 13 nM
Relative Binding % Prog. [1]: 199%
Relative Binding % R5020 [1]: 29%
